Results taken from ChEMBL document CHEMBL1201862, “PubChem BioAssay data set” (2004).
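Grown in 96-well plates, cells were treated for 48 hours with each compound at five concentrations. Insufficient inhibition: endpoint recorded as highest concentration tested. At the GI50, growth is halved.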 Active and inactive are the calls of the source. Cut-off read from the data, not from the text of the source: active = GI50 up to about 1.1 µM and inactive = higher.

How the values were obtained:
Assay in all cases: NCI anticancer screen, dose series, 48 h
786-0 = test system: 786-0
A549 = test system: A549
CAKI-1 = test system: CAKI-1
DLD-1 = test system: DLD-1
HL-60 = test system: HL-60
IGROV-1 = test system: IGROV-1
LOX IMVI = test system: LOX IMVI
MOLT-4 = test system: MOLT-4
NCI-H226 = test system: NCI-H226
SF-539 = test system: SF-539
SK-MEL-28 = test system: SK-MEL-28
SK-MEL-2 = test system: SK-MEL-2
SK-OV-3 = test system: SK-OV-3
SN12C = test system: SN12C
SW-620 = test system: SW-620
UACC-62 = test system: UACC-62

Measured: GI50

O=C1NCC2=C1CCC1c3ccccc3CCN21 (centres undefined)
inactive: 786-0 > 100 µM | A549 > 100 µM | CAKI-1 > 100 µM | DLD-1 > 100 µM | HL-60 > 100 µM | IGROV-1 > 100 µM | LOX IMVI > 100 µM | MOLT-4 > 100 µM | NCI-H226 > 100 µM | SF-539 > 100 µM | SK-MEL-28 > 100 µM | SK-MEL-2 > 100 µM | SK-OV-3 > 100 µM | SN12C > 100 µM | SW-620 > 100 µM | UACC-62 > 100 µM

CC(=O)CC(=O)OC1CC(C)CCC1C(C)C (centres undefined)
inactive: 786-0 > 100 µM | A549 35.3 µM | CAKI-1 > 100 µM | DLD-1 24.7 µM | HL-60 18.8 µM | IGROV-1 76.6 µM | LOX IMVI 47.6 µM | MOLT-4 17.3 µM | SF-539 36.8 µM | SK-MEL-28 63.4 µM | SK-MEL-2 28.4 µM | SK-OV-3 > 100 µM | SN12C > 100 µM | SW-620 43.1 µM | UACC-62 69.2 µM

O=c1[nH]c(=O)n([C@H]2C[C@@H](CO)[C@@H](O)C2)cc1I
inactive: 786-0 > 100 µM | A549 > 100 µM | CAKI-1 > 100 µM | DLD-1 > 100 µM | HL-60 > 100 µM | IGROV-1 > 100 µM | LOX IMVI > 100 µM | MOLT-4 > 100 µM | NCI-H226 > 100 µM | SF-539 > 100 µM | SK-MEL-28 > 100 µM | SK-MEL-2 > 100 µM | SK-OV-3 > 100 µM | SN12C > 100 µM | SW-620 > 100 µM | UACC-62 > 100 µM

CC1(C)OCC([C@H]2CC23SCCCS3)O1 (some centres undefined)
inactive: 786-0 > 100 µM | A549 > 100 µM | CAKI-1 > 100 µM | DLD-1 > 100 µM | HL-60 > 100 µM | IGROV-1 > 100 µM | MOLT-4 > 100 µM | NCI-H226 > 100 µM | SF-539 > 100 µM | SK-MEL-28 > 100 µM | SK-MEL-2 > 100 µM | SK-OV-3 > 100 µM | SN12C > 100 µM | UACC-62 > 100 µM

CCCC(=O)N[C@H]1C2C3CC4C5CC(C42)C1(C)C53 (some centres undefined)
inactive: 786-0 > 100 µM | A549 > 100 µM | CAKI-1 > 100 µM | DLD-1 > 100 µM | HL-60 > 100 µM | IGROV-1 > 100 µM | LOX IMVI > 100 µM | MOLT-4 > 100 µM | NCI-H226 > 100 µM | SF-539 > 100 µM | SK-MEL-28 > 100 µM | SK-MEL-2 > 100 µM | SK-OV-3 > 100 µM | SN12C > 100 µM | SW-620 > 100 µM | UACC-62 > 100 µM

COC(=O)C1=NC(=S)NC(c2ccccc2)C1c1nc2ccccc2s1 (centres undefined)
inactive: 786-0 > 100 µM | A549 > 100 µM | CAKI-1 > 100 µM | DLD-1 > 100 µM | HL-60 98.2 µM | IGROV-1 > 100 µM | MOLT-4 > 100 µM | NCI-H226 > 100 µM | SF-539 67.8 µM | SK-MEL-28 > 100 µM | SK-MEL-2 > 100 µM | SK-OV-3 > 100 µM | SN12C > 100 µM | SW-620 > 100 µM | UACC-62 > 100 µM

Cn1ccnc1CCc1ccc(Cl)cc1Cl
inactive: 786-0 > 100 µM | A549 > 100 µM | CAKI-1 > 100 µM | DLD-1 > 100 µM | HL-60 68.1 µM | IGROV-1 > 100 µM | LOX IMVI > 100 µM | MOLT-4 > 100 µM | NCI-H226 > 100 µM | SF-539 > 100 µM | SK-MEL-28 > 100 µM | SK-MEL-2 > 100 µM | SK-OV-3 > 100 µM | SN12C > 100 µM | SW-620 > 100 µM | UACC-62 > 100 µM

CC(=O)O[C@H]1[C@@H]2[C@@H]3[C@@H](C[C@H]1C)[C@@H](C)CO[C@@]1(C)CC/C=C(/C)C[C@@H]2O[C@@H]31
inactive: 786-0 > 100 µM | A549 > 100 µM | CAKI-1 > 100 µM | DLD-1 > 100 µM | HL-60 > 100 µM | IGROV-1 > 100 µM | LOX IMVI > 100 µM | MOLT-4 > 100 µM | NCI-H226 > 100 µM | SF-539 > 100 µM | SK-MEL-28 > 100 µM | SK-MEL-2 > 100 µM | SK-OV-3 > 100 µM | SN12C > 100 µM | SW-620 > 100 µM | UACC-62 > 100 µM

O=C(/C=C/c1ccco1)c1ccc(NCc2nc3ccccc3[nH]2)cc1
inactive: 786-0 14.6 µM | CAKI-1 17.2 µM | DLD-1 15 µM | HL-60 13 µM | IGROV-1 18.1 µM | LOX IMVI 12.2 µM | MOLT-4 10.4 µM | NCI-H226 1.73 µM | SF-539 18 µM | SK-MEL-28 18 µM | SK-MEL-2 19.1 µM | SK-OV-3 18.3 µM | SN12C 17.2 µM | SW-620 16 µM | UACC-62 14 µM
